This is an account of results in ChEMBL document CHEMBL5653631, “A Potent and Selective ULK1 Inhibitor Suppresses Autophagy and Sensitizes Cancer Cells to Nutrient Stress” (iScience, 2018).

For assay [1], the target named is Mitogen-activated protein kinase 1 (Homo sapiens) (UniProt P28482). Briefly: Inhibition of human recombinant Erk2 at 40 nM in presence of ATP by radiometric assay relative to control.
In assay [2] the target is Tyrosine-protein kinase SYK (Homo sapiens) (UniProt P43405). Nature of the assay: Inhibition of human recombinant SYK at 40 nM related to control ULK1.
Assay [3] addresses Serine/threonine-protein kinase SIK3 (Homo sapiens) (UniProt Q9Y2K2). Nature of the assay: Inhibition of human recombinant QSK at 40 nM in presence of ATP by radiometric assay relative to control.
For assay [4], the target named is Cyclin-dependent kinase 9 (Homo sapiens) (UniProt P50750). Briefly: Inhibition of human recombinant CDK9 at 40 nM related to control ULK1.
Sequence of Cyclin-dependent kinase 9 (Homo sapiens) (P50750 whole entry): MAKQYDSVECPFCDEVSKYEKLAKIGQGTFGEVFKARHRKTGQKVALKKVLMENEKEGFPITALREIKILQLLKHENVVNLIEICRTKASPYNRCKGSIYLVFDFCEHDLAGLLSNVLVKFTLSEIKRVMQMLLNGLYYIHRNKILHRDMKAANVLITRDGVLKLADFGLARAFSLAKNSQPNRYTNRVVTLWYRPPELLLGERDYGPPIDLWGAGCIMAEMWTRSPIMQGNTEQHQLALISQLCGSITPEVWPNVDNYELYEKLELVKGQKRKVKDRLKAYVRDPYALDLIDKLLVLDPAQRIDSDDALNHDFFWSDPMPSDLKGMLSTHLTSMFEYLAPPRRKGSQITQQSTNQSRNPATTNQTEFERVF
In assay [5] the target is T1, Tyrosine-protein kinase receptor TYRO3 (Homo sapiens) (UniProt Q06418).
T1 sequence (whole entry): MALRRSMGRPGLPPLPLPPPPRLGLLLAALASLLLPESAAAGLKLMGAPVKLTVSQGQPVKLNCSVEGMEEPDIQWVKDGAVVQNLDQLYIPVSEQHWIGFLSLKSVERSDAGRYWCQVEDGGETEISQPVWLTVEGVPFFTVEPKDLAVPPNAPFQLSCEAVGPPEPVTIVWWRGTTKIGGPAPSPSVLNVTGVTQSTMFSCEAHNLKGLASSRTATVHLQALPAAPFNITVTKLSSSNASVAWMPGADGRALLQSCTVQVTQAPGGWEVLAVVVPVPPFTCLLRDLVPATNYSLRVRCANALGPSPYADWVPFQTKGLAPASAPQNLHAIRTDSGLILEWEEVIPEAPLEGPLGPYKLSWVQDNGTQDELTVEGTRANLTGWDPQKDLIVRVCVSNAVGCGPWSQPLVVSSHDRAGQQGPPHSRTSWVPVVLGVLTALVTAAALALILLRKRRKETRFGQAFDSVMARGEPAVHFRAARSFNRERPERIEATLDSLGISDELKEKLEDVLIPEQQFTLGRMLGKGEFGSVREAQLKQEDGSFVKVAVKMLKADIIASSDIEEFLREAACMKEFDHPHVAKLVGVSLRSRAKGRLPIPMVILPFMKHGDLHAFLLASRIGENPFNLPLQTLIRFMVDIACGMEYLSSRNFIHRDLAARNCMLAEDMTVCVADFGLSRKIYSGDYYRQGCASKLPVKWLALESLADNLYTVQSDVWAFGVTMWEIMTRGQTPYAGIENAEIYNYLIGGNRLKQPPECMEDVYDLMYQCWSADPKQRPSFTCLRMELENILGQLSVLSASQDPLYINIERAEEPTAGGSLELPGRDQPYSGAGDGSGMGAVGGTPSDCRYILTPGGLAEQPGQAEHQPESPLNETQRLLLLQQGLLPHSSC
Nature of the assay: Inhibition of human recombinant TYRO3 at 500 nM related to control ULK1.

The target in assay [6] is Serine/threonine-protein kinase Chk2 (Homo sapiens) (UniProt O96017). Briefly: Inhibition of human recombinant CHK2 at 500 nM related to control ULK1.
Sequence of Serine/threonine-protein kinase Chk2 (Homo sapiens) (O96017 whole entry): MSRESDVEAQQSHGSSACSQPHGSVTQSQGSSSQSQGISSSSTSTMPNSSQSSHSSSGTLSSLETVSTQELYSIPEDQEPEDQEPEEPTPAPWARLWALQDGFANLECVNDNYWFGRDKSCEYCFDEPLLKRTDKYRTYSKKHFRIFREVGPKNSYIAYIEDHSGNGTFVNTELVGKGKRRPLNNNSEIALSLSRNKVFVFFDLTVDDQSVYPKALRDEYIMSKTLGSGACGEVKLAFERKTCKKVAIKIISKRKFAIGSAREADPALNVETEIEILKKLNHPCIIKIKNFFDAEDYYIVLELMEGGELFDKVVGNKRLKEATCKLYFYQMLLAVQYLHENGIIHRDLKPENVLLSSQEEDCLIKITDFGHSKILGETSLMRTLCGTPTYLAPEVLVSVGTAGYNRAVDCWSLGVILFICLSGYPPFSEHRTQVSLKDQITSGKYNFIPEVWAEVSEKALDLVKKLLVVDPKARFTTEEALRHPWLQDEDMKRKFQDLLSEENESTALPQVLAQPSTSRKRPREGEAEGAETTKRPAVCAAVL
The target of assay [7] is MAP kinase-activated protein kinase 2 (Homo sapiens) (UniProt P49137). Briefly: Inhibition of human recombinant MAPKAPK2 at 500 nM in presence of ATP by radiometric assay relative to control.
Sequence of MAP kinase-activated protein kinase 2 (Homo sapiens) (P49137 whole entry, looked up): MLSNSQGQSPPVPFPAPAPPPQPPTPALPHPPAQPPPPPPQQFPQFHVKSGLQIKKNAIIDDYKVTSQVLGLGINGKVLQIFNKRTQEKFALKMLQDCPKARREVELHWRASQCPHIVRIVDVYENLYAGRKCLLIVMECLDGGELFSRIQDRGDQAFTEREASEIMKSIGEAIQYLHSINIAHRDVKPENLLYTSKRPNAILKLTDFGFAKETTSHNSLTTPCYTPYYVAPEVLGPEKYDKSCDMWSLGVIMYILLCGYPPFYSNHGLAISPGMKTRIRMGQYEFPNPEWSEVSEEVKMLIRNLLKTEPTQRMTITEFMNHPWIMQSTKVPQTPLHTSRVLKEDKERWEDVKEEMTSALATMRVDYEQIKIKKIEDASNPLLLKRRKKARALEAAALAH
Assay [8] deals with T2, Mitogen-activated protein kinase 12 (Homo sapiens) (UniProt P53778).
T2 sequence (whole entry): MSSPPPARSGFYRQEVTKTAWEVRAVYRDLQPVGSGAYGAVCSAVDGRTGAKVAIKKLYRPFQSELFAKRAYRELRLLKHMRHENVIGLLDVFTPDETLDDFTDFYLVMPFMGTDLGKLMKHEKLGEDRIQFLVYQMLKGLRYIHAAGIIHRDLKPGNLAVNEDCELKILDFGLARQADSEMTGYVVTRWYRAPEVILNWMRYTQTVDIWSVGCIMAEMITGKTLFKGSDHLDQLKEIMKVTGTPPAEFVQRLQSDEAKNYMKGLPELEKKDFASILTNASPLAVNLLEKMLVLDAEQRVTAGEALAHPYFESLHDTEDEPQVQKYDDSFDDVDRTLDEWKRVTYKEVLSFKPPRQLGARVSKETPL
Nature of the assay: Inhibition of human recombinant p38gamma at 500 nM related to control ULK1.

Assay [9] has as its target Maternal embryonic leucine zipper kinase (Homo sapiens) (UniProt Q14680). Briefly: Inhibition of human recombinant MELK at 500 nM in presence of ATP by radiometric assay relative to control.
Assay [10] addresses eIF-2-alpha kinase GCN2 (Homo sapiens) (UniProt Q9P2K8). Briefly: Inhibition of human recombinant GCN2 at 15 nM related to control ULK1.
The target in assay [11] is Casein kinase I isoform gamma-1 (Homo sapiens) (UniProt Q9HCP0). Nature of the assay: Inhibition of human recombinant CK1g1 at 15 nM related to control ULK1.
Sequence of Casein kinase I isoform gamma-1 (Homo sapiens) (Q9HCP0 whole entry, looked up, canonical isoform): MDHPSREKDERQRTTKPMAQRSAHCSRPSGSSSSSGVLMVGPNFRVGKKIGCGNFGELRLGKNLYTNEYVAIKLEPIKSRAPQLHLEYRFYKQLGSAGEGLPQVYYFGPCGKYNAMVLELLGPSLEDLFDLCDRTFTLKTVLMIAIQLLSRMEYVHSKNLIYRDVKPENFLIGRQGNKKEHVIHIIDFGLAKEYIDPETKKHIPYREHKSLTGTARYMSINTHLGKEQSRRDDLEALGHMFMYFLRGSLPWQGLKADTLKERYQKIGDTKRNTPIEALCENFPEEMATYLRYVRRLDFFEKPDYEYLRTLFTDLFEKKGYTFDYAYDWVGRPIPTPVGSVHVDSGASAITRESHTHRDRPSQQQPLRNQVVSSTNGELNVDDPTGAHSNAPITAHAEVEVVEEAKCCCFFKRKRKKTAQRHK
The target of assay [12] is T3, Serine/threonine-protein kinase Nek2 (Homo sapiens) (UniProt P51955).
T3 sequence (whole entry): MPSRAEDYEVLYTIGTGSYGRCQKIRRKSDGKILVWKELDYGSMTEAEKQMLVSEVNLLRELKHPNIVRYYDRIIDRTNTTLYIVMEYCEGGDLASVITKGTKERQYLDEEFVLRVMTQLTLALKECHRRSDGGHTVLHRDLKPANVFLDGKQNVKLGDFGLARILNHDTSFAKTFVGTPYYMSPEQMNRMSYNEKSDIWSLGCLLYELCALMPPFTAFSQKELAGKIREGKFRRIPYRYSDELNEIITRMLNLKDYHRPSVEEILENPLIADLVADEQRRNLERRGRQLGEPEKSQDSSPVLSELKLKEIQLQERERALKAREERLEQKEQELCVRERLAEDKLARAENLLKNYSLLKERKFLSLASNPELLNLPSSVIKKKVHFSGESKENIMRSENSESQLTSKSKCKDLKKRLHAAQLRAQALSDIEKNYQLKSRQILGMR
Nature of the assay: Inhibition of human recombinant NEK2 at 15 nM related to control ULK1.

Sequence of Serine/threonine-protein kinase SIK3 (Homo sapiens) (Q9Y2K2 whole entry, looked up): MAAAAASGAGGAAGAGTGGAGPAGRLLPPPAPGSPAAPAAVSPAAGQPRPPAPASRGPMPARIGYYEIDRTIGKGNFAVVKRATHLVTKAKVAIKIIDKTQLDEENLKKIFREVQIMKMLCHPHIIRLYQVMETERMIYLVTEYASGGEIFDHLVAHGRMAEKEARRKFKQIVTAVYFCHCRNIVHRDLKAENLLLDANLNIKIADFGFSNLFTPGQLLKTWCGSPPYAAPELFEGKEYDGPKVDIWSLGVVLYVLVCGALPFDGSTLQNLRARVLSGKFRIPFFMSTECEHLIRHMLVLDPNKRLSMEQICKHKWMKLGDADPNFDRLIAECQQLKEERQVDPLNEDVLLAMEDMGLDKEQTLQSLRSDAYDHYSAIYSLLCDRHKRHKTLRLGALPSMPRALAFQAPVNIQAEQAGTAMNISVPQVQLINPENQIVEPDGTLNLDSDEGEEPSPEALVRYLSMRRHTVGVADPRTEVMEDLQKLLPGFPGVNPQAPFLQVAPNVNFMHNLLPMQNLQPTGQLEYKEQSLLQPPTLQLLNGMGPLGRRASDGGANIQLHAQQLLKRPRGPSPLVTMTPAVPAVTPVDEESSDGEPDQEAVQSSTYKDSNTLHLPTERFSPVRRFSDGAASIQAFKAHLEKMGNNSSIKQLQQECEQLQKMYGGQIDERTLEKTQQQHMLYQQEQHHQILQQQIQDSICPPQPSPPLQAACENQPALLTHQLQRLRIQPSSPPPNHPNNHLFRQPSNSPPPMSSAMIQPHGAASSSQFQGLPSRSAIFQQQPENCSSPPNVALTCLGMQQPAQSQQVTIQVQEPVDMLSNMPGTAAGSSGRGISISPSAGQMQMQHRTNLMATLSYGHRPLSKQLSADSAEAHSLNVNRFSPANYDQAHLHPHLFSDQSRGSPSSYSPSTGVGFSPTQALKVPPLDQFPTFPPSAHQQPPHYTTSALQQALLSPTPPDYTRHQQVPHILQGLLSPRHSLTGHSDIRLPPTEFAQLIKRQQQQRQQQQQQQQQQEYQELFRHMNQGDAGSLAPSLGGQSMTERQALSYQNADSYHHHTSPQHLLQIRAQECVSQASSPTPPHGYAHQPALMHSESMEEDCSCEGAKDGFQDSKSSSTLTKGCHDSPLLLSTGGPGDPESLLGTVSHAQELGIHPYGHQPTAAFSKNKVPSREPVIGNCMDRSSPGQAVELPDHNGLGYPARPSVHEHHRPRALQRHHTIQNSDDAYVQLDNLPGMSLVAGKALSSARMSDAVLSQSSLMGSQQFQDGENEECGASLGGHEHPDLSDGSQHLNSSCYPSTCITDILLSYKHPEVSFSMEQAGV
Sequence of eIF-2-alpha kinase GCN2 (Homo sapiens) (Q9P2K8 whole entry, canonical isoform): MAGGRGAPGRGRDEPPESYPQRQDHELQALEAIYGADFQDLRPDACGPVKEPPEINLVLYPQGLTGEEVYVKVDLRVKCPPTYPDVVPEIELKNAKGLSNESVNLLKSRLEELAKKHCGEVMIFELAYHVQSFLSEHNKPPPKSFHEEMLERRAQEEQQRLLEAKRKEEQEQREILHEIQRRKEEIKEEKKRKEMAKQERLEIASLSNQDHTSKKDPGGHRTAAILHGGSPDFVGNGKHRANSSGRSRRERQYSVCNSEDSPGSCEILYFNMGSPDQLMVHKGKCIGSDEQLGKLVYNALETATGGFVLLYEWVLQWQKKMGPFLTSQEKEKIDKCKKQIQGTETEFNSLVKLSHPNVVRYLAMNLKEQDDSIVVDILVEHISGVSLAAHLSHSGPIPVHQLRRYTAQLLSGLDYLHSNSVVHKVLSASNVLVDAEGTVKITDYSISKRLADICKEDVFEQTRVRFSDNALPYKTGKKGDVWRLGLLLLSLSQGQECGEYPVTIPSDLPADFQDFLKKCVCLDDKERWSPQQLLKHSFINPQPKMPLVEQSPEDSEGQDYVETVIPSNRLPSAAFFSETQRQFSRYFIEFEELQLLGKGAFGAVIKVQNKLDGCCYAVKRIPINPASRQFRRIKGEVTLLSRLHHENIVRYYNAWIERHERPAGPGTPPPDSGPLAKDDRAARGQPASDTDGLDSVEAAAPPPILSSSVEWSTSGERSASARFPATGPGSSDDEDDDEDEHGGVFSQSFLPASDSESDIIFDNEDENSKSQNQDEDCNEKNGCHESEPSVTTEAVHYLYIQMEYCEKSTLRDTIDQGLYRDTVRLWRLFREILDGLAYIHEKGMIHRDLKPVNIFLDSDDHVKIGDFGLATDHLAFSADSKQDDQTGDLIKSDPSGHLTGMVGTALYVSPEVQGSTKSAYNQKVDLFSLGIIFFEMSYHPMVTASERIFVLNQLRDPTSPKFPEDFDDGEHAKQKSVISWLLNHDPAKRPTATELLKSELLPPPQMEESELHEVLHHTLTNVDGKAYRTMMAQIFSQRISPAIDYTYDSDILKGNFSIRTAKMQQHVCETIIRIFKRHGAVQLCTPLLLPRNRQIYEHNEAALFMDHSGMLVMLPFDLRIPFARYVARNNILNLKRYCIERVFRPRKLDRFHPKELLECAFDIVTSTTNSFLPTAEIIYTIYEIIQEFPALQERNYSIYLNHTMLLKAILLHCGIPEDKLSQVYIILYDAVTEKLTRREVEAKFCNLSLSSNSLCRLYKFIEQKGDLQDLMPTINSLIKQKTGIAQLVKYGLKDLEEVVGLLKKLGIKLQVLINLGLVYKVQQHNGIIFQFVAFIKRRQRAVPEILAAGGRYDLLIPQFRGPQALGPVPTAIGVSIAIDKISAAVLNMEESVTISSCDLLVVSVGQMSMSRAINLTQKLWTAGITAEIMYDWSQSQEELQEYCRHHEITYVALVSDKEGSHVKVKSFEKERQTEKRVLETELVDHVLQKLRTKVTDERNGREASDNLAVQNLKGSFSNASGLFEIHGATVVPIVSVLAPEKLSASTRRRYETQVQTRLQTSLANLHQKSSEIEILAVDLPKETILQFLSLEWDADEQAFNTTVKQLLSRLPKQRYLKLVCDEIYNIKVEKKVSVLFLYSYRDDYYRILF
Sequence of Mitogen-activated protein kinase 1 (Homo sapiens) (P28482 whole entry): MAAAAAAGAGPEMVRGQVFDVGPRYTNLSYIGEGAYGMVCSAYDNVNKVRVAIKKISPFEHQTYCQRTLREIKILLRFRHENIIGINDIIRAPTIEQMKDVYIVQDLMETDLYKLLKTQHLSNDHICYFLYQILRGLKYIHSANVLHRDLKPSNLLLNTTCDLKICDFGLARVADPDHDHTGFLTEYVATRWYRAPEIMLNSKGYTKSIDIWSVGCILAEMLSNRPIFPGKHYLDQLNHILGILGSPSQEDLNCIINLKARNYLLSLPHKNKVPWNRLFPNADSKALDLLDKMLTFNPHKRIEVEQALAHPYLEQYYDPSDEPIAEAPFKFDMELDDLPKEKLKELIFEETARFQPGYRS

For orientation: inhibition means the change of the read-out against control, counted positive when it falls. Take `O=C(N[C@@H](C1CC1)C(F)(F)F)c1cc(-c2cnn3cc(-c4ccc(F)cc4)cnc23)cs1`: the values for the inhibition in [1] and in [3] were 0% and 59%, respectively. The fold change (FC) in [2] and in [4] was 0 throughout.

Regarding `CNC(=O)c1ccccc1Oc1nc(Nc2cc(OC)c(OC)c(OC)c2)ncc1Br`, the values for the fold change (FC) in assay [5], in assay [6] and in assay [8] were 0.14, 0 and 0, respectively. Moreover, the inhibition in [7] and in [9] was 0% each time.

Regarding `CC(C)[C@H](NC(=O)c1cc(-c2cnn3cc(-c4ccc(OCCN5CCCCC5)cc4)cnc23)cs1)C(F)(F)F`, the fold change (FC) in assay [10] was 0.09; in assay [11], 0; in assay [12], 0.14.
